For this test, the target named is T1, acetolactate synthase (ALS).
T1 construct: native ALS from leaf extract of susceptible population 18-NJ (ammonium sulfate precipitated, desalted; ALS1/ALS2/ALS3 copies not separated)
The experiment in a line: in vitro ALS activity assay (acetoin formation, […] nm) in desalted leaf enzyme extract. The format is biochemical, Echinochloa crus-galli.

Take `COc1cnc(OC)n2nc(NS(=O)(=O)c3c(OCC(F)F)cccc3C(F)(F)F)nc12` [penoxsulam]: the IC50 (in general, the concentration needed to halve the response being measured) amounted to 1.23 µM.

Source of the values: article PMC12424613, “Analysis of the resistance level and target site resistance mechanisms of Echinochloa crus-galli to penoxsulam from Hubei Province, China” (PeerJ, 2025).
